Values joined by “and” are separate entries in the source; they are usually repeats but may differ in a detail not shown here. Equal entries are not always repeated.
Tests used:
[1] = target: T1, bovine aortic sarcolemma membrane vesicles ([^125 I]ChTX binding) (Bos taurus, UniProt Q28204); assay: [^125 I]ChTX (Charybdotoxin) binding to bovine aortic sarcolemma membrane vesicles
T1 construct: bovine aortic sarcolemma membrane vesicles; from tissue; host or cells: bovine aorta (smooth muscle) sarcolemma membrane vesicles
Experimental: The interaction of [^125 I]ChTX (Charybdotoxin) with bovine aortic sarcolemma membrane vesicles was determined under conditions as described in Vazquez et al., 1989, J. Biol. Chem. 264, 20902-20909. Briefly, sarcolemma membrane vesicles were incubated in 12×75 polystyrene robes with ca. 25 pM [^125 I]ChTX (2200 Ci/mmol), in the absence or presence of test compound, in a media consisting of 20 mM NaCl, 20 mM Tris-HCl pH 7.4, 0.1% bovine serum albumin, 0.1% digitonin. Nonspecific binding was determined in the presence of 10 nM ChTX. Incubations were carried out at room temperature until ligand binding equilibrium is achieved at ca. 90 min. At the end of the incubation period, samples were diluted with 4 mL ice-cold 100 mM NaCl, 20 mM Hepes-Tris pH 7.4 and filtered through GF/C glass fiber filters that have been presoaked in 0.5% polyethylenimine. Filters were rinsed twice with 4 mL ice-cold quench solution. Radioactivity associated with filters was determined in a gamma counter. Specific binding data in the presence of each compound (difference between total binding and nonspecific binding) was assessed relative to an untreated control.

[2] = target: large-conductance calcium-activated potassium (maxi-K) channels (Bos taurus, UniProt Q28204); assay: Patch clamp recordings of maxi-K channel currents in excised inside-out membrane patches from cultured bovine aortic smooth muscle cells; type: biochemical; conditions: 10 μM
Experimental: Pipettes were typically filled with solutions containing (mM): 150 KCl, 10 Hepes (4-(2-hydroxyethyl)-1-piperazineethanesulfonic acid), 1 Mg, 0.01 Ca, and adjusted to pH 7.20 with 3.7 mM KOH. After forming a high resistance (>10^9 ohms) seal between the sarcolemmal membrane and the pipette, the pipette was withdrawn from the cell forming an excised inside-out membrane patch. […] An Axopatch 1C amplifier (Axon Instruments, Foster City, Calif.) with a CV-4 headstage was used to control the voltage and to measure the currents flowing across the membrane patch. The input to the headstage was connected to the pipette solution with a Ag/AgCl wire, and the amplifier ground was connected to the bath solution with a Ag/AgCl wire covered with a robe filled with agar dissolved in 0.2M KCl. Maxi-K channels were identified by their large single channel conductance (~250 pS) and sensitivity of channel open probability to membrane potential and intracellular calcium concentration.
Data was stored on a RACAL STORE 4DS FM tape recorder (Racal Recorders, Vienna, Va.) or on digital video tape using a video casette recorder after digitizing the signal with VR-10 (Instrutech Corp., Belmont N.Y.) PCM video encoder. The signal was also recorded on chart paper with a GOULD 2400S chart recorder (Gould Inc., Cleveland Ohio). For quantitative analysis, the data was played into a DEC 11-73 (Digital Equipment Corp., Maynard, Mass.) after digitization with a DT2782-8D1A analogue to digital converter (Data Translation Inc., Marlboro, Mass.), or played into a MAC IIx or QUADRA 700 computer (Apple Computers) after digitization with an ITC-16 interface (Instrutech Corp., Belmont, N.Y.).

maxi-K channels = assay: Maxi-K channel recordings in planar lipid bilayers with plasma membrane vesicles from bovine aortic smooth muscle; type: biochemical; conditions: 10 μM, lipid bilayer
Experimental: Planar lipid bilayers were formed from a solution of 1-palmitoyl-2-oleoylphosphatidylethanolamine (POPE) and 1-palmitoyloleoylphosphatidylcholine (POPC) in a 7/3 molar ratio dissolved in decane (50 mg/mL). This lipid solution was painted across a small hole (250 micron) separating two aqueous compartments and readily formed bilayers with capacitances of 200-250 pF. The solution on the side that the membranes were added (cis) contained (mM): 150 KCl, 10 Hepes, 0.01 Ca, 3.7 KOH, pH 7.20. The solution on the other side (trans) contained (mM): 25 KCl, 10 HEPES, 0.01 Ca, 3.7 KOH, pH 7.20. Plasma membrane vesicles purified from bovine aortic smooth muscle (Slaughter et al. 1989, Biochemistry 28, 3995-4002) were added to the cis side until channel incorporation occurred. After channel incorporation, the concentration of KCl on the trans side was increased to 150 mM to prevent further channel incorporation. The orientation of maxi-K channels after insertion into the bilayer was determined from the calcium and voltage sensitivity of the channel. […]
Data was stored on a RACAL STORE 4DS FM tape recorder (Racal Recorders, Vienna, Va.) or on digital video tape using a video casette recorder after digitizing the signal with VR-10 (Instrutech Corp., Belmont N.Y.) PCM video encoder. The signal was also recorded on chart paper with a GOULD 2400S chart recorder (Gould Inc., Cleveland Ohio). […]

[3] = excised inside-out patch, result in words
[4] = application to the intracellular side, excised inside-out patch

T1 sequence (Q28204 whole entry): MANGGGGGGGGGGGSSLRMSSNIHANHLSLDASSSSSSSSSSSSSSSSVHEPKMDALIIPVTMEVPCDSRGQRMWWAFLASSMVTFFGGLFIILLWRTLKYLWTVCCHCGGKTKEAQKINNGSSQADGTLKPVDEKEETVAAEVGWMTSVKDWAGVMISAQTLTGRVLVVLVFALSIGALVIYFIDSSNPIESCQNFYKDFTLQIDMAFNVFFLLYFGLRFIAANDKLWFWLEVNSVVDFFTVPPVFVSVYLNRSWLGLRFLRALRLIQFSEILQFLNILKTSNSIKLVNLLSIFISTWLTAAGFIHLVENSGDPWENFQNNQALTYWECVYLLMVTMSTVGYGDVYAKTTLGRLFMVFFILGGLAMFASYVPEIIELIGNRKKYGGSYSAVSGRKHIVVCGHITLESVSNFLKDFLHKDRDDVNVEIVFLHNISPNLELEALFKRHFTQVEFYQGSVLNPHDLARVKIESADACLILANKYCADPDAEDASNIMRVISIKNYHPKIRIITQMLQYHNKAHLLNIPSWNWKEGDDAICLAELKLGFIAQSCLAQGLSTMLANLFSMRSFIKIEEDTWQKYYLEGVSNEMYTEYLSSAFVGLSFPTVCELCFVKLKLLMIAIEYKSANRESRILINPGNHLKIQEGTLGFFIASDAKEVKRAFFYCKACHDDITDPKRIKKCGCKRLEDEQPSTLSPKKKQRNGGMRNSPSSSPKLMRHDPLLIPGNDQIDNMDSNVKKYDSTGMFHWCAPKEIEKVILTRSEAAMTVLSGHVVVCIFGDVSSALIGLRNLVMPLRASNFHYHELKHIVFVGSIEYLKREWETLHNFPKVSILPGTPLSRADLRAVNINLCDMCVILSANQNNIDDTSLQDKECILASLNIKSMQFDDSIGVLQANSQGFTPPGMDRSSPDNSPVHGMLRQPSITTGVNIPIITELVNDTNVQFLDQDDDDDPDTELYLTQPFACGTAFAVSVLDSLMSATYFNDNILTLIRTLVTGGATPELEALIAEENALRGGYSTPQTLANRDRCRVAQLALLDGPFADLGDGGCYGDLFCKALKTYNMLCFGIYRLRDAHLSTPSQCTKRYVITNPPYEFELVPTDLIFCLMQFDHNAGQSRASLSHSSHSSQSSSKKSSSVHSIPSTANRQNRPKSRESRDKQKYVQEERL
Sequence of large-conductance calcium-activated potassium (maxi-K) channels (Q28204 whole entry): as above
Sequence of large-conductance calcium-activated potassium (maxi-K) channels (Q28067 whole entry partner): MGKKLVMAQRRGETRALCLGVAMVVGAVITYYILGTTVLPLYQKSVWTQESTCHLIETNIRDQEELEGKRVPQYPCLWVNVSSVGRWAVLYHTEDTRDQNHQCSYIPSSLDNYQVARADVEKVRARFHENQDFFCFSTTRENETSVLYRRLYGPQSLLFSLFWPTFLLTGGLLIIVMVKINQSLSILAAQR

SMILES: CC1=CC[C@@]2(C)C[C@H](O)[C@@](O)(C(C)C)[C@@H]2CC1 [Compound B, reference compound]
- IC50 [1]: 200 nM
- inhibition of [^125 I]ChTX binding ([1]; result in words): concentration-dependent inhibition
- effect on channel open probability [2, 3]: no clear effect on channel open probability

SMILES: CCCCC/C=C\C/C=C\CCCCCCCC(=O)O[C@H]1C[C@]2(C)CC=C(C)CC[C@H]2[C@]1(O)C(C)C [Compound C]
- effect on [^125 I]ChTX binding ([1]; concentrations up to 100 μM, tested at 1, 10 and 100 μM): no effect on binding
- effect on channel open probability [2, 4]: small decreases in channel open probability

SMILES: CC(C)[C@@]1(O)[C@@H]2CCC(CO)=CC[C@@]2(C)C[C@@H]1O [Compound E]
- effect on toxin binding ([1]; concentrations from 1 nM to 100 μM): did not produce any significant effect on toxin binding
- effect on channel open probability [2, 4]: no observable effect on channel open probability

SMILES: CCCCCCCC/C=C\CCCCCCCC(=O)OCC1=CC[C@@]2(C)C[C@H](O)[C@@](O)(C(C)C)[C@@H]2CC1 [Compound A]
- IC50 [1]: 360 nM and ~360 nM
- inhibition of [^125 I]ChTX binding ([1]; result in words): concentration-dependent inhibition
- time over which increase in channel open probability developed ([2]; excised inside-out patch): 5 to 10 min
- effect on channel open probability [2, 3]: clear increases in channel open probability
- reversal of increase in channel open probability on washout ([2]; long (20-60 minutes) washout): slowly reversed after long (20-60 minutes) washout
- increase in channel open probability (maxi-K channels; inside face of the channel): 1.4 fold
- effect on channel open probability (maxi-K channels; outside face of the channel): did not increase channel open probability

SMILES: CCCCCCCC/C=C\CCCCCCCC(=O)O[C@H]1C[C@]2(C)CC=C(C)CC[C@H]2[C@]1(O)C(C)C [Compound D]
- remaining activity at 100 µM ([1]; 1.5 h, pH 7.4, read-out: [^125 I]ChTX binding, % of that under control conditions): 37%
- inhibition of [^125 I]ChTX binding ([1]; at 100 μM, tested at 1, 10 and 100 μM): significant inhibition of binding
- effect on channel open probability [2, 4]: small decreases in channel open probability

— US5399587A, “Biologically active compounds” (priority 1993, dated 1995)
